Measured values from US20240425457A1, “COMPOSITIONS AND METHODS FOR SUPPRESSING AND/OR TREATING METABOLIC DISEASES AND/OR A CLINICAL CONDITION THEREOF” (CK Biotech Inc., priority 2018, published 2024).
Entries after “also recorded” stand apart in the source; their conditions may differ.

Tests used:
[1] = system: 3T3-L1 preadipocytes; test: adipocyte differentiation of 3T3-L1 preadipocytes, Oil Red O staining; type: cell-based
Experimental: Cell culture and adipocyte differentiation. 3T3-L1 cells were seeded in six-well plates at a density of 3×10^4 cells per well. The cells were grown in Dulbecco's modified Eagle medium (DMEM) with 10% bovine calf serum (Gibco) until confluent. After confluence, cells were induced to differentiate in DMEM containing 10% fetal bovine serum (FBS; Gibco) and MDI (520 μM methylisobutylxanthine (IBMX; Sigma-Aldrich), 1 μM dexamethasone (Sigma-Aldrich), and 167 nM insulin (Gibco)) with or without A3334. On day 4, the medium was replaced with DMEM containing 10% FBS and 167 nM insulin with or without A3334 and changed with fresh identical medium every 2 days up to day 14 post-induction. Cells were incubated at 37° C. in a 5% CO2 environment.
Oil Red O staining. […] For the quantification of lipid contents, the Oil Red O was eluted by the addition of 500 μl isopropanol containing 4% nonidet P-40 to each well and the absorbance was measured spectrophotometrically at 590 nm.
ORO staining. […] In the morning each well was washed thoroughly with water and images of the ORO staining were recorded with a Nikon bright-field optical microscope (Nikon TE-2000U, Tokyo, Japan) and quantified for further statistical analysis. For quantify lipid contents, the ORO was eluted by addition of 500 µl isopropanol containing 4% nonidet P-40 to each well and the absorbance was measured spectrophotometrically at 590 nm. […]

[2] = system: HFD-induced obese mice; test: HFD-induced obese mice, oral administration during 16 weeks of HFD; type: in vivo; conditions: HFD 16 weeks
Experimental: Anti-obesity effects of […], a small molecule […] inhibitor. Referring now to FIG. 34, C57BL/6N mice were fed HFD for 16 weeks with or without oral administration of 25 mpk […] or Orlistat. Orlistat is an anti-obesity drug that is thought to act by limiting the absorption of fats from the diet (e.g., a lipase inhibitor). […] Referring now to FIG. 35, The C57BL/6N mice were grown with HFD for 16 weeks with or without oral administration of 25 mpk of […], […], and I3O. […] The increase in adipocyte cell sizes and enhancement of inflammation (evaluated by crown like structures; blue; FIG. 35B) were suppressed by treatment with […] in the HFD mice.

[3] = molecular target: T1, CXXC5-DVL interaction (Homo sapiens, UniProt O14640); test: in vitro CXXC5-DVL PPI inhibition screening assay (FITC-tagged PTD-DBMP on DVL-PDZ, fluorescence); type: binding
T1 sequence (O14640 251-323 limits assumed): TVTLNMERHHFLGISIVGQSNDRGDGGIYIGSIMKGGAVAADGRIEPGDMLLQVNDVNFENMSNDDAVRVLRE
Experimental: Screening for compounds that inhibit the CXXC5-DVL interaction. […] CELL. DEATH. DIFFER. […] After the addition of 10 μM FITC-tagged PTD-DBMP to each well, each compound in the chemical library or control (DMSO) was treated to the well at a final concentration of 30 μM. The fluorescence intensity was measured using a Fluorstar Optima microplate reader (BGM Lab Technologie, Ortenberg, Germany) and normalized as follows: “(‘compounds-treated group’−‘blank’)/(‘DMSO-treated control’−‘blank’)*100”.

Compound | adipogenic differentiation of 3T3-L1 preadipocytes [1] | adipocyte cell size and inflammation (crown like structures) ([2]; 25 mpk oral) | inhibition of CXXC5-DVL interaction (in words) [3] | HFD-induced body weight gain and abdominal obesity ([2]; 25 mpk oral) | fatty liver and white adipocyte tissue ([2]; 25 mpk oral) | glucose tolerance (GTT) and insulin tolerance (ITT) ([2]; 25 mpk oral) | triglyceride, total cholesterol, HDL-cholesterol ([2]; 25 mpk oral) | inhibitory effect on weight gain compared with orlistat ([2]; both 25 mpk)
CO/N=C1/C(=C2/C(=O)Nc3cc(Cl)c(Cl)cc32)Nc2ccccc21 [Compound A3051, 5,6-dichloroindirubin-3′-methoxime] | significant anti-differentiation effects | showed reduction in adipocyte size and anti-inflammatory effects, but those effects were lower when compared to that of the A3334 treatment | effectively inhibited interaction between CXXC5 and DVL |  |  |  |  | 
COc1ccc2c(c1)/C(=C1/Nc3ccccc3/C1=N\O)C(=O)N2 [Compound A3334, 5-Methoxyindirubin-3′-oxime] | efficiently inhibited the adipogenic differentiation of 3T3-L1 preadipocytes; also recorded: significant anti-differentiation effects | suppressed by treatment with A3334 | effectively inhibited interaction between CXXC5 and DVL | not observed in the HFD mice treated with A3334 | suppression of fatty liver and white adipocyte tissue | significantly improved by the A3334 treatment | significantly reduced the level of triglyceride and total cholesterol and increased the level of HDL-cholesterol | much more significant than the effects observed in the HFD mice treated with orlistat
